Where two headings read alike, the source gives them in different places. Starred links: 1 amine or outer side, 2 acyl side, 3 side chain; linkers in the order of their positions; H or OH if unused. Positions of bridges follow the written chain, without caps; N, C: chain ends. Residues, ends and D or L forms follow the SMILES beside them. Groups on a side chain read outwards from the residue. No end group written: not given here. *: point of attachment. C20 diacid = O=C(O)CCCCCCCCCCCCCCCCCCC(=O)*; γGlu = O=C(O)[C@H](CCC(=O)[*:2])N[*:1]

Series [1] can be described thus: Half-life of compound A2 in the rat. The settings on record: in vivo, read-out: 0% of compound A2 (half-life). The protocol:
(§1) Following at least 1 week of insulin dose stabilization, animals are entered into each of 5 supplemental treatments comprising administration of the long-acting amylin agonist, compound A2, at doses of 1, 3, 10, 30 or 100 μg/day as a single daily injection, in addition to the fixed daily Levemir dose. (Alternatively, these studies could utilize relatively short-acting pramlintide as an amylin analog.) The […] is 32-37 hours in the rat, similar to that of albumin-bound insulin detemir. Daily dosing of each therefore maintains relatively constant concentrations of each, and a relatively ratio of concentrations.

For series [2] the following is noted: in vivo; cited from earlier work.
The conditions of series [3]: cited from earlier work.
For series [4] the following is noted: cited from earlier work. This is another data set of the same source.
Series [5] is classed as in vivo, rat (male Wistar). On the set-up: hypo avoidance index (benefit index; below 70 mg/dL weighted 5× vs over 180 mg/dL): scale not given here; hazard index: time above 180 mg/dL (hyperglycemic) / benefit index: time in range (above 70, below 180 mg/dL): unit not given here. The settings on record: for benefit index: time in range (above 70, below 180 mg/dL) / hazard index: time above 180 mg/dL (hyperglycemic) / hypo avoidance index (benefit index; below 70 mg/dL weighted 5× vs over 180 mg/dL): STZ rat, A2 0 μg/kg/day.
Excerpt: Male Wistar rats are implanted intraperitoneally (sensor in abdominal aorta) with an HD-XG continuous glucose monitor (Data Sciences, St Paul, Minn.) (Brockway, Tiesma et al. 2015). This system allows up to 8 weeks of continuous capture of blood glucose concentrations.
Upon recovery from surgery and resumption of normal food intake, capture of glucose readings begins so as to include at least 4 days of non-diabetic record for each rat. To induce insulinopenic (type 1) diabetes, rats are fasted overnight and administered an intravenous dose of streptozotocin (STZ) of 60 mg/kg (Gajdosik, Gajdosikova et al. 1999). Glucose readings from the telemetry system are used to enhance survival post-STZ, by s.c. glucose supplementation in the event of hypoglycemia that often accompanies an initial release of insulin following β-cell toxicity. The telemetry is then used to affirm hyperglycemia (mean plasma glucose >300 mg/dL), and to determine if a second STZ treatment is necessary for rats that are not sufficiently hyperglycemic.
Upon becoming hyperglycemic, animals are treated daily with a sliding-scale of a long-acting insulin (insulin detemir, Levemir NOVO) so as to eliminate urinary ketones, but maintain 5% glycosuria, as determined by daily KETOSTIX and GLUCOSTIX testing, respectively (Young, Crocker et al. 1991).
Animals are assigned to one of 3 cohorts of insulin dosing (n=5/cohort). One cohort is defined as that necessary to attain −ve urinary ketones and +ve urinary glucose, as just described, but not greater than a total dose of 2 U/day. A second cohort is a high insulin dose cohort, 3× greater than cohort 1. A third cohort is one where insulin dose is 50% of that of cohort 1.
as §1
Each dose level of compound A2 is maintained for 1 week, during which glucose data is captured via telemetry. The order in which doses of compound A2 are changed is determined by a 5×5 orthogonal latin square. That is, each animal receives each dose of compound A2, but in an order that is unique relative to that of the other 4 animals in the same insulin cohort. This treatment balances out time-dependent or order-dependent changes in metabolic status of each animal, such as regeneration of insulin secretory capacity, and accommodation to the effects of an amylin agonist.
Plasma glucose values from the final 4 days of each insulin/A2 combination are aggregated and analyzed according to frequency of occurrence (cumulative distributions). Analogous to the time-in-range (TIR) assessment of clinical benefit (sometimes termed “clinical utility”) in human diabetes trials (Beck, Bergenstal et al. 2018), glucose values are categorized within bins (<70, 70-180, and >180 mg/dL). Further cuts (>250 mg/dL) are also made. Parametric descriptors of glucose values are also derived for each combination (mean and SD values, linear and logarithmic, where data are not normal but are log-normal).
Higher benefit (i.e., utility) is indicated when TIR is greatest, with the proviso that values below 70 mg/dL are not more frequent. Higher benefit is also indicated when the SD for the distribution of glucose values is least.

The term half-life denotes the time needed for the level to fall by half in the phase considered. For `CC[C@H](C)[C@H](NC(=O)[C@@H]1CCCN1C(=O)CNC(=O)[C@H](Cc1ccccc1)NC(=O)[C@H](CC(N)=O)NC(=O)[C@H](CC(N)=O)NC(=O)[C@H](CO)NC(=O)[C@H](CO)NC(=O)[C@H](CCCCN)NC(=O)[C@H](Cc1c[nH]cn1)NC(=O)[C@H](CC(C)C)NC(=O)[C@H](CCC(=O)O)NC(=O)[C@H](CC(N)=O)NC(=O)[C@H](C)NC(=O)[C@H](CC(C)C)NC(=O)[C@H](CCCNC(=N)N)NC(=O)[C@H](CCC(N)=O)NC(=O)[C@@H](NC(=O)[C@H](C)NC(=O)[C@@H]1CSSC[C@H](NC(=O)[C@@H](N)CCCCNC(=O)CC[C@H](NC(=O)CC[C@H](NC(=O)CCCCCCCCCCCCCCCCCCC(=O)O)C(=O)O)C(=O)O)C(=O)N[C@@H](CC(N)=O)C(=O)N[C@@H]([C@@H](C)O)C(=O)N[C@@H](CO)C(=O)N[C@@H]([C@@H](C)O)C(=O)N1)[C@@H](C)O)C(=O)N[C@@H](CC(C)C)C(=O)N1CCC[C@H]1C(=O)N1CCC[C@H]1C(=O)N[C@H](C(=O)N[C@@H](CCCCN)C(=O)N[C@H](C(=O)NCC(=O)N[C@@H](CO)C(=O)N[C@@H](CCC(=O)O)C(=O)N[C@H](C(=O)N[C@@H](Cc1ccc(O)cc1)C(N)=O)[C@@H](C)O)C(C)C)[C@@H](C)O` [Compound A2] (H-K([γGlu-γGlu-C20 diacid])CNTSTCATQRLANELHKSSNNFGPILPPTKVGSETY-NH2; disulfide 2-7), the half-life in series [1] was 32 to 37 h.

Regarding Davalintide, the half-life result in series [2] is recorded as “about 26 minutes”.

In the case of aspart [Fiasp ® (aspart)], in series [3] (in vivo), the Duration was 3 to 5 h and the Peak was 1 to 3 h. In series [3] (relative to rapid-acting insulins), the “Onset, sooner than Rapid Acting Insulins” value was “about 5 mins”.

Regarding aspart [Novo's Novolog ® (aspart)], in series [3] (in vivo), the Duration is 3 to 5 h, the Onset is 10 to 20 min and the Peak is 0.667 to 0.833 h.

As for “glulisine [Sanofi's Apidra ® (glulisine)]”, in series [3] (in vivo), the Onset was 20 to 30 min and the Peak was 0.5 to 1.5 h.

Consider “human amylin: 37-residue polypeptide hormone co-secreted with insulin from pancreatic β-cells (SEQ ID NO: 5) (KCNTATCATQRLANFLVHSSNNFGAILSSTNVGSNTY; disulfide 2-7; listed as Homo sapiens)”, for which the half-life entry in series [4] (in humans) is “about 13 minutes”. Also, in series [4] (serum), the half-life in serum result was “about 13 minutes”.

For the molecule “insulin degludec [Novo's Tresiba ® (insulin degludec)]”, in series [3] (in vivo), the Duration is 42 h and the Onset was 30 to 90 min. Further, in series [3] (result in words), the Peak result is given as “No peak time”.

“insulin detemir [Novo's Levemir ® (insulin detemir)]”: in series [5] (insulin 1 U/day), the “benefit index: time in range (above 70, below 180 mg/dL)” value (shortened to “benefit index: time in range”) is 39.5; the “hazard index: time above 180 mg/dL (hyperglycemic)” value (from here on “hazard index: time above 180 mg/dL”) worked out at 60.2; the “hypo avoidance index (benefit index; below 70 mg/dL weighted 5× vs over 180 mg/dL)” value (shortened to “hypo avoidance index”) is 33.8. In series [5] (insulin 2 U/day), the “benefit index: time in range” value stood at 64.9; the “hazard index: time above 180 mg/dL” value worked out at 29.4; the “hypo avoidance index” value was 41.6. In series [5] (insulin 6 U/day), the “benefit index: time in range” value came to 78.9; the “hazard index: time above 180 mg/dL” value was 2.8; the “hypo avoidance index” value worked out at 5.7. Besides, in series [5] (post-STZ rats, 2 U/day Levemir, no A2), the “blood glucose values within range 70-180 mg/dL (TIR)” value turned out to be 64.9%. For the same molecule, in series [5] (rat, in vivo), the “blood glucose values <70 mg/dL” value is 5.8% and the “proportion of time spent below 70 mg/dL” value was “markedly increase”. In series [3] (in vivo), the Duration entry is recorded as “Up to 24 hours”, the Onset was 60 to 120 min and the Peak was 6 to 8 h.

For insulin glargine, the Duration in series [3] (in vivo) is 20 to 24 h. Besides, the Peak entry in series [3] (result in words) is given as “No peak time”.

On to lispro [Lilly's Humalog ® (lispro)], for which, in series [3] (in vivo), the Duration is 3 to 5 h, the Onset is 15 to 30 min and the Peak was 0.5 to 1.5 h.

For “recombinant insulin [Novo's Novolin ® (recombinant insulin)]”, in series [3] (in vivo), the Duration is 5 to 8 h and the Peak is 2 to 5 h.

Turning to “velosulin: human insulin for use in an insulin pump, short-acting”, in series [3] (in vivo), the Duration was 2 to 3 h and the Peak was 1 to 2 h.

The values are drawn from US20230158116A1, “USE OF HUMAN AMYLIN ANALOG POLYPEPTIDES FOR PROVIDING SUPERIOR GLYCEMIC CONTROL TO TYPE 1 DIABETICS” (I2O Therapeutics, Inc., priority 2020, published 2023).
